From ChEMBL document CHEMBL6127052, “Discovery of membrane-targeting amphiphilic honokiol derivatives containing an oxazolethione moiety to combat methicillin-resistant Staphylococcus aureus (MRSA) infections” (Eur J Med Chem, 2024)
Active and inactive are the calls of the source. No cut-off for these calls is given here.

How the values were obtained:
[1] = test system: Staphylococcus aureus; test: (§1) Antibacterial activity against methicillin-resistant Staphylococcus aureus clinical isolate M12 infected in sepsis BALB/c mouse model assessed as decrease in degeneration of hepatocytes at 6 mg/kg, ip administered consecutively at 12 hr-interval for 24 hrs measured after 24 hrs post-last dose by H and E staining based analysis; assay type: functional, organism-based; conditions: time 48.0 hrs
[2] = Toxicity in BALB/c mouse assessed as pathological change in white medulla of spleen at 15 mg/kg, ip bid for 7 days; assay type: organism-based; conditions: in vivo, 168 h, time 7 day
[3] = Toxicity in KM mouse assessed as change in WBC count at 20 mg/kg, sc measured after 24 hrs; assay type: organism-based; conditions: in vivo
[4] = test system: Staphylococcus aureus; test: Induction of cell membrane damage in methicillin-resistant Staphylococcus aureus clinical isolate M12 assessed as increase in red fluorescence at 8 times MIC incubated for 4 hrs by DAPI/PI staining based analysis; assay type: functional, organism-based
[5] = Toxicity in KM mouse assessed as degeneration of hepatocytes at 20 mg/kg, sc measured after 24 hrs by H and E staining based analysis; assay type: organism-based; conditions: in vivo
[6] = test system: Staphylococcus aureus; test: Antibacterial activity against methicillin-resistant Staphylococcus aureus clinical isolate M12 infected in KM mouse assessed as decrease in neutrophils at subcutaneous tissues at 5 to 10 mg/kg, sc measured after 24 hrs; assay type: functional, organism-based; conditions: dose 5-10 mg/kg
[7] = test system: Staphylococcus aureus; test: Antibacterial activity against methicillin-resistant Staphylococcus aureus clinical isolate M12 infected in KM mouse assessed as reduction in TNF-alpha level at infection site at 10 mg/kg, sc measured after 24 hrs by ELISA; assay type: functional
[8] = Toxicity in KM mouse assessed as inflammatory cell infiltration in cardiac muscle fibers at 20 mg/kg, sc measured after 24 hrs by H and E staining based analysis; assay type: organism-based; conditions: in vivo
[9] = test system: Staphylococcus aureus; test: Disruption of cell membrane in methicillin-resistant Staphylococcus aureus clinical isolate M12 assessed as increase in DNA leakage incubated for 4 hrs by […]; assay type: functional, organism-based; conditions: dose <= 16.0 µg/ml
[10] = test system: Staphylococcus aureus; test: Antibacterial activity against methicillin-resistant Staphylococcus aureus clinical isolate M13 by CLSI based micro-broth dilution method; assay type: functional
[11] = Toxicity in KM mouse assessed as pathological change in spleen at 20 mg/kg, sc measured after 24 hrs by H and E staining based analysis; assay type: organism-based; conditions: in vivo
[12] = Toxicity in BALB/c mouse assessed as edema in hepatocytes at 15 mg/kg, ip bid for 7 days; assay type: organism-based; conditions: in vivo, 168 h, time 7 day
[13] = test system: Staphylococcus aureus; test: Antibacterial activity against methicillin-resistant Staphylococcus aureus clinical isolate M12 infected in KM mouse assessed as reduction in IL-6 level at infection site at 5 mg/kg, sc measured after 24 hrs by ELISA; assay type: functional
[14] = test system: Staphylococcus aureus; test: Disruption of cell membrane in methicillin-resistant Staphylococcus aureus clinical isolate M12 assessed as fold increase in protein leakage at 8 times MIC incubated for 4 hrs by BCA assay relative to control; assay type: functional
[15] = Stability in sheep plasma infected with methicillin-resistant Staphylococcus aureus clinical isolate M12 at 16 ug/ml pretreated compound with plasma for 6 hrs followed by bacterial infection for 16 to 18 hrs; assay type: ADME, cell-free, Ovis aries; conditions: at 16 µg/mL, time 22-24 hrs
[16] = test system: Staphylococcus aureus; test: as §1, with “pathological change in white medulla” for “degeneration”, “spleen” for “hepatocytes”; assay type: functional, organism-based; conditions: time 48.0 hrs
[17] = Toxicity in KM mouse assessed as edema in hepatocytes at 20 mg/kg, sc measured after 24 hrs by H and E staining based analysis; assay type: organism-based; conditions: in vivo
[18] = test system: Staphylococcus aureus; test: as §1, with “necrosis in” for “degeneration of”, “12” for “6”; assay type: functional, organism-based; conditions: time 48.0 hrs
[19] = test system: Staphylococcus aureus; test: Antibacterial activity against methicillin-resistant Staphylococcus aureus clinical isolate M16 by CLSI based micro-broth dilution method; assay type: functional
[20] = Toxicity in KM mouse assessed as inflammatory cell infiltration in lung epithelial cells at 20 mg/kg, sc measured after 24 hrs by H and E staining based analysis; assay type: organism-based; conditions: in vivo
[21] = test system: Staphylococcus aureus; test: Antibacterial activity against methicillin-resistant Staphylococcus aureus clinical isolate M12 infected in KM mouse assessed as decrease in erythematous pustules in intradermal tissues at 5 mg/kg, sc measured after 24 hrs; assay type: functional, organism-based
[22] = test system: Staphylococcus aureus; test: as §1, with “pathological change in red medulla” for “degeneration”, “spleen” for “hepatocytes”; assay type: functional, organism-based; conditions: time 48.0 hrs
[23] = Toxicity in KM mouse infected with methicillin-resistant Staphylococcus aureus clinical isolate M12 assessed as histopathological abnormality in heart at 5 to 10 mg/kg, sc measured after 24 hrs by H and E staining based analysis; assay type: organism-based; conditions: in vivo, dose 5-10 mg/kg
[24] = Toxicity in KM mouse infected with methicillin-resistant Staphylococcus aureus clinical isolate M12 assessed as damage in liver at 5 to 10 mg/kg, sc measured after 24 hrs by H and E staining based analysis; assay type: organism-based; conditions: in vivo, dose 5-10 mg/kg
[25] = test system: Staphylococcus aureus; test: Induction of morphological changes in methicillin-resistant Staphylococcus aureus clinical isolate M12 assessed as torn cell membrane at 8 times MIC incubated for 4 hrs by SEM analysis; assay type: functional, organism-based
[26] = test system: Escherichia coli; test: Antibacterial activity against Escherichia coli ATCC 25922 by CLSI based micro-broth dilution method; assay type: functional
[27] = Toxicity in KM mouse assessed as change in MCV level at 20 mg/kg, sc measured after 24 hrs; assay type: organism-based; conditions: in vivo
[28] = Hemolytic activity in sheep erythrocytes incubated for 1 hr by absorbance based assay; assay type: toxicity, cell-based, Ovis aries, Erythrocyte

Structure (SMILES): C=CCc1cc(-c2ccc(OCCC[N+](C)(C)CC(=O)NCCCC)c(CC=C)c2)c2oc(=S)n(Cc3ccc(F)cc3)c2c1.[Br-]
- Activity [1]: inactive
- Activity [2]: Non-Toxic
- Activity [3]: Non-Toxic
- Activity [4]: Active
- Activity [5]: Non-Toxic
- Activity [6]: Active
- Activity [7]: 102.6 pg/mL
- Activity [8]: Non-Toxic
- Activity [9]: Dose-Dependent Effect
- MIC [10]: 4 µg/mL
- Activity [11]: Non-Toxic
- Activity [12]: Non-Toxic
- Activity [13]: 65.6 pg/mL
- fold change (FC) [14]: ~4
- Stability [15]: Stable
- Activity [16]: inactive
- Activity [17]: Non-Toxic
- Activity [18]: Active
- MIC [19]: 2 µg/mL
- Activity [20]: Non-Toxic
- Activity [21]: inactive
- Activity [22]: inactive
- Activity [23]: Non-Toxic
- Activity [24]: Non-Toxic
- Activity [25]: Active
- MIC [26]: > 128 µg/mL
- Activity [27]: Non-Toxic
- HC50 at 1 h [28]: 157 µg/mL
